Experimental data from patent publication US10513534B2, “2′-chloro nucleoside analogs for HCV infection” (priority 2012, dated 2019).

Key:
Huh-7 cells = experiment: Release of active metabolite in Huh-7 cells; assay type: in vitro ADME
Experimental: Huh-7 cells were plated in 1 mL culture medium (DMEM, containing glucose, L-glutamine and sodium pyruvate, 10% FBS, 100 IU/mL penicillin, 100 μg/mL streptomycin, 2 mM GlutaMAX, 1% MEM non-essential amino acids) at the concentration 0.8, 0.4 and 0.2 million cells per well on 6 well plates for 24, 48 and 72 hr treatment, respectively. Plated cells were incubated overnight at 37° C. in an incubator.
The following morning test compound was diluted to 20 μM from a stock solution in DMSO in fresh culture medium pre-warmed to 37° C. and 1 mL of the solution/well was added to cells. A final medium volume per well was 2.0 mL, test compound concentration in well was 10 μM and final DMSO concentration was 0.1%.
After 24, 48 or 72 hr, the medium was carefully removed and cell monolayers were washed twice with 2 mL ice-cold PBS per well. Following the last wash, all PBS was carefully removed and 1.0 mL of extraction solution (ice-cold 70% methanol) added. The plate was tightly covered with Parafilm, plastic plate cover and Parafilm again and an intracellular content was extracted at −20° C. for 24 hr.
After 24 hr the extracts were transferred into polypropylene microfuge tubes and dry on a refrigerated centrivap concentrator. Dry residues were reconstituted in 250 μL of HPLC-grade water and centrifuged at 16,000×g for 10 min. Aliquots (100 μL each) of the supernatants were transferred into a 96 well plate and internal standard (4 ng/mL final concentration) was added as the internal standard (IS) for LC-MS/MS analysis.

[1] = Stability in intestinal microsomes; assay type: in vitro ADME; conditions: human intestinal microsomes 1.0 mg/mL, 10 μM, NADPH, 60 min
Experimental: Stability of test compounds were determined in human liver and intestinal microsomes in duplicate for each matrix. Pooled liver and intestinal microsomal proteins (1.0 mg/mL), suspended in incubation buffer (100 mM potassium phosphate, pH 7.4, 5 mM MgCl2, and 0.1 mM EDTA), were preincubated for 5 min at 37° C. with 10 μM of a test compound from a 10 mM stock solution in DMSO (final DMSO concentration was 0.1%); the reaction was initiated by the addition of NADPH (3 mM final concentration). At specific times (0 and 60 min), 0.1 mL samples were taken and the reaction terminated by the addition of 4 volumes of stop solution (acetonitrile with 500 ng/mL carbutamide as an internal standard). The samples were vortexed for 30 sec and then centrifuged at 16000×g for 10 min. 100 μL of supernatants were transferred to 96 deep-well plates preloaded with 100 μL distilled water and analyzed after mixing by LC-MS/MS. The MS peak area ratio of the test compound versus the internal standard was calculated and percent unchanged test compound over 60 minutes was calculated using this ratio.

fresh mouse hepatocytes = experiment: Release of active metabolite in fresh mouse hepatocytes; assay type: in vitro ADME; conditions: 10 μM
Experimental: (§1) Plates of fresh human and mouse hepatocytes were obtained on ice. The medium was removed and replaced with hepatocyte culture medium (William's E supplemented with penicillin-streptomycin, 1% L-glutamine, 1% insulin-transferrin-selenium and 0.1 μM Dexamethasone (Invitrogen) or with Invitro GRO HI medium complemented with Torpedo antibiotics (Celsis)). Cells were left overnight in an incubator at 37° C. to acclimatize to culture and the medium.
(§2) Hepatocyte incubations were conducted at a final volume of 0.5 mL hepatocyte culture medium/well (0.8 million cells/well for human and 0.5 million cells/well for mouse; 12 well plate no overlay, collagen coat). Culture medium from overnight incubation of cells was removed and replaced with fresh medium, pre-warmed to 37° C., containing 10 μM of test compound from a stock solution in DMSO (final DMSO concentration was 0.1%). At each specific time point, incubation medium was removed and cell monolayers were carefully washed two times with ice-cold PBS. Following the last wash, all PBS was carefully removed and 1.0 mL of extraction solution (ice-cold 70% methanol/30% water) added. Cells were scraped off and suspended in the extraction solution, transferred to 2 mL polypropylene microfuge tubes and intracellular contents extracted overnight at −20° C.
(§3) After the overnight treatment the cellular extracts were prepared by centrifugation at 16,000×g for 10 min to remove cellular debris. The remaining sample was then dried using a refrigerated centrivap concentrator. Dry extracts were reconstituted in 1000 μL of HPLC-grade water and centrifuged at 16,000×g for 10 min. Aliquots (100 μL each) of the supernatant were transferred into a 96 well plate and internal standard (4 ng/mL final concentration) was added as the internal standard (IS) for LC-MS/MS analysis.
(§4) The incubation time points were 6, 24 and 48 hours for human hepatocytes and 1, 4, 8, 12 and 24 hours for mouse hepatocytes.

Zluc cells = experiment: Cytotoxicity evaluation, CellTiter-Blue Cell Viability Assay; conditions: Zluc cells, CellTiter-Blue
fresh human hepatocytes = experiment: Release of active metabolite in fresh human hepatocytes; assay type: in vitro ADME; conditions: 10 μM
Experimental: as §1, §2, §3, §4

[2] = Stability in simulated gastric fluid; assay type: in vitro ADME; conditions: simulated gastric fluid with pepsin, 100 μM, 2 hours, 37° C.
Experimental: Stability in Simulated Gastric and Intestinal Fluids: Simulated gastric and intestinal fluids containing pepsin and pancreatin respectively were prepared according to the U.S. Pharmacopoeia USP291 procedure(www.pharmacopeia.cn/v29240/usp29nf24s0_ris1s126.html). Each test compound (final concentration 100 μM) was incubated in duplicate in the appropriate fluid for 2 hours at 37° C. The samples were quenched with […] cold acetonitrile, vortexed for 30 seconds and then centrifuged at 16100×g for 10 min. The supernatants were analyzed by HPLC on a C-18 column with UV detection at 252 nm. The time zero samples were prepared by adding SGF or SIF fluid to the quenching solvent followed by the test compound. Stability of the compound was determined by peak area of the test compound after incubation and calculated as percent of the peak area observed at time zero.

Which “Huh-7 TP AUC” value (Huh-7 cells; 10 μM) does the source give for `CC(C)OC(=O)[C@H](C)NP(=O)(OC[C@H]1O[C@@H](n2ccc(=O)[nH]c2=O)[C@](C)(Cl)[C@@H]1O)Oc1ccccc1` (single isomer, unassigned) [Compound 40ii Diastereomer 2] here?
Its value is “++++ (1500 < ++++)”.

What about the “Huh-7 TP Cmax” value (Huh-7 cells; 10 μM test compound) of the same compound?
Its value is “++++ (100 < ++++)”.

What about the “Huh-7 TP (24 hr)” value (Huh-7 cells; 10 μM, 24 hr) of the same compound?
The value was “++++ (100 < ++++)”.

What about the “Huh-7 TP (48 hr)” value (Huh-7 cells; 10 μM, 48 hr) of the same compound?
Its value is “++++ (100 < ++++)”.

And the “Huh-7 TP (72 hr)” value (Huh-7 cells; 10 μM, 72 hr)?
Its value is “++++ (100 < ++++)”.

And the “HIM (1 hr) stability (percent remaining)” value [1]?
The value was “++++ (75% < ++++)”.

What about the “MsH AUC” value (fresh mouse hepatocytes) of the same compound?
The value was “++++ (1500 < ++++)”.

What about the “MsH Cmax” value (fresh mouse hepatocytes) of the same compound?
Its value is “+++ (50 < +++ ≤ 100)”.

What about the CC50 (Zluc cells) of the same compound?
Its CC50 is over 50 µM.

And the “FHH TP AUC” value (fresh human hepatocytes)?
Its value is “++++ (1500 < ++++)”.

And the “FHH TP Cmax” value (fresh human hepatocytes)?
Its value is “++++ (100 < ++++)”.

What about the “FHH TP (6 hr)” value (fresh human hepatocytes; 6 hr) of the same compound?
Its value is “++++ (100 < ++++)”.

And the “FHH TP (24 hr)” value (fresh human hepatocytes; 24 hr)?
The value was “+++ (50 < +++ ≤ 100)”.

What about the “FHH TP (48 hr)” value (fresh human hepatocytes; 48 hr) of the same compound?
Its value is “+++ (50 < +++ ≤ 100)”.

And the “SGF stability (percent remaining)” value [2]?
The value was “++++ (75% < ++++)”.
